Test results published in US11130752B2, “Aminopyrimidine compound” (Cardurion Pharmaceuticals, LLC, priority 2018, dated 2021).

Assays:
human CaMKIIδ = molecular target: T1, human CaMKIIδ (Homo sapiens, UniProt Q13557); assay: In vitro CaMKII inhibitory activity (binding assay, TR-FRET); settings: activity ranks
T1 construct: Full-length, glutathione-S-transferase(GST)-tagged, human CaMKIIδ was purchased from Carna Biosciences; purchased Carna Biosciences (CaMKIIδ); Wako Pure Chemical Industries (calmodulin) 02-111
How it was run: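 TR-FRET displacement of a BODIPY probe (300 nM) from 0.5 nM full-length GST-tagged human CaMKIIδ, with Tb-anti-GST, calmodulin and 1 mM CaCl2 in pH 7.6 HEPES/MgCl2 buffer. Read after 1 hr at room temperature over an eight-point 4-fold series. IC50 by logistic fit, with 3 μM parent compound as the 100% control.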

[1] = tested on: phospholamban (Thr17, PLN) phosphorylation, cardiac CaMKII; assay: In vivo cardiac CaMKII inhibition (oral administration), P-PLN Western blot; settings: male CD (SD) IGS rat left ventricle, 30 mg/kg p.o., 4 hr after administration, in comparison with vehicle-treated group, read-out: Reduction rate of P-PLN
Protocol: Evaluation of In Vivo Cardiac CaMKII Inhibition (Oral Administration)
To evaluate potency of test compounds to inhibit cardiac CaMKII kinase in vivo, phosphorylation levels of CaMKII-specific sites of phospholamban (Thr17, PLN) were measured in the heart of rats administered orally with test compounds.
Test compounds were suspended in 0.5% [w/v]methylcellulose/water solution and administered (30 mg/kg) to male CD (SD) IGS rat (6-8 weeks old, n=4) by the p.o. route (5 mL/kg). At 4 hours after the administration, rats were sacrificed and the hearts were harvested. After washing the isolated hearts with ice-cold saline, connective tissues were removed on ice, and the isolated left ventricle were frozen into liquid nitrogen gas and stored at −80° C.
(§1) The left ventricle samples were homogenized in RIPA-buffer containing phosphatase inhibitors and protease inhibitors. Samples were analyzed by Western blotting using anti-P-PLN (Thr17, Santa Cruz Biotechnology, sc-17024-R) antibody. The band intensities were quantified using an imaging system and were normalized relative to the vehicle-treated group.

HepG2 cells = assay: In vitro cytotoxicity (cellular ATP content, CellTiter-Glo); type: cell-based; settings: 33 μM, 72 hr incubation
Protocol: Evaluation of In Vitro Cytotoxicity
To evaluate in vitro cytotoxicity of test compounds, % ATP reduction was determined in the presence of 33 μM of each test compound after 72 hr incubation.
HepG2 cells were seeded in DMEM (Invitrogen) containing 10% FBS (Corning)+glucose (4.5 g/L) for 24 hr to allow cell adhesion. For compound treatments, compounds were diluted in DMSO and the media, followed by added to the wells (24 hr after the cell seeding) to obtain the desired final concentration (33 μM, n=2). The final DMSO concentration was 1%. After 72 hr, cellular ATP contents were measured using CellTiter-Glo Luminescent Cell Viability Assay (Promega). The % ATP reduction was determined by comparing the ATP contents in the absence and the presence of test compounds.

[2] = tested on: phospholamban (Thr17, PLN) phosphorylation, cardiac CaMKII; assay: In vivo cardiac CaMKII inhibition (intravenous administration), P-PLN Western blot; settings: male CD (SD) IGS rat left ventricle, 1 mg/kg bolus i.v., 0.25 hr after administration, in comparison with vehicle-treated group
Protocol: Evaluation of In Vivo Cardiac CaMKII Inhibition (Intravenous Administration)
To evaluate potency of test compounds to inhibit cardiac CaMKII kinase in vivo, phosphorylation levels of CaMKII-specific sites of phospholamban (Thr17, PLN) were measured in the heart of rats administered intravenously with test compounds.
Test compounds were dissolved in N,N-dimethylacetamide and 1,3-butanediol (1:1) solution and were injected (1 mg/kg) to male CD (SD) IGS rats (8 weeks old, n=4) by bolus intravenous injection via the lateral tail vein or the femoral vein (0.5-1 mL/kg). At 0.25 hours after the injection, rats were sacrificed and the hearts were harvested. After washing the isolated hearts with ice-cold saline, connective tissues were removed on ice, and the isolated left ventricle were frozen into liquid nitrogen gas and stored at −80° C.
as §1

[3] = Table 1, GST-tagged human CaMKIIδ
[4] = Table 4, GST-tagged human CaMKIIδ

Compound | IC50 (human CaMKIIδ; [3]) [nM] | inhibition in vivo at 30 mg/kg [1] [%] | IC50 (human CaMKIIδ; [4]) [nM] | % ATP reduction (HepG2 cells) [%] | also measured
CCOCCCOc1nn([C@H]2CC[C@H](N3[C@@H]4CC[C@H]3COC4)CC2)cc1Nc1ncc(-c2ccc(C#N)c(O[C@@H](C)Cn3cnnn3)c2)cn1 [Example 36, 2-(((S)-1-(1H-tetrazol-1-yl)propan-2-yl)oxy)-4-(2-((1-((1r,4r)-4-((1R,5S)-3-oxa-8-azabicyclo[3.2.1]octan-8-yl)cyclohexyl)-3-(3-ethoxypropoxy)-1H-pyrazol-4-yl)amino)pyrimidin-5-yl)benzonitrile] | < 10 | > 30 |  |  | 
COCCOCCCOc1nn([C@H]2CC[C@H](N3C[C@@H](C)O[C@@H](C)C3)CC2)cc1Nc1ncc(-c2ccc(Cl)c(O[C@@H](C)Cn3cnnn3)c2)cn1 [Example 487, 5-(3-(((S)-1-(1H-tetrazol-1-yl)propan-2-yl)oxy)-4-chlorophenyl)-N-(1-((1r,4r)-4-((2S,6R)-2,6-dimethylmorpholino)cyclohexyl)-3-(3-(2-methoxyethoxy)propoxy)-1H-pyrazol-4-yl)pyrimidin-2-amine] |  | > 30 | < 10 |  | 
COCCOCCOc1nn([C@H]2CC[C@H](N3C[C@@H](C)O[C@@H](C)C3)CC2)cc1Nc1ncc(-c2ccc(C#N)c(O[C@@H](C)Cn3cnnn3)c2)cn1.Cl [Example 241, 2-(((S)-1-(1H-tetrazol-1-yl)propan-2-yl)oxy)-4-(2-((1-((1r,4r)-4-((2S,6R)-2,6-dimethylmorpholino)cyclohexyl)-3-(2-(2-methoxyethoxy)ethoxy)-1H-pyrazol-4-yl)amino)pyrimidin-5-yl)benzonitrile hydrochloride] | < 10 |  |  | −2 | 
C[C@@H]1CN([C@H]2CC[C@H](n3cc(Nc4ncc(-c5ccc(Cl)c(O[C@@H](C)Cn6cnnn6)c5)cn4)c(OCCC(C)(C)O)n3)CC2)C[C@H](C)O1 [Example 486, 4-((4-((5-(3-(((S)-1-(1H-tetrazol-1-yl)propan-2-yl)oxy)-4-chlorophenyl)pyrimidin-2-yl)amino)-1-((1r,4r)-4-((2S,6R)-2,6-dimethylmorpholino)cyclohexyl)-1H-pyrazol-3-yl)oxy)-2-methylbutan-2-ol] |  | > 30 | < 10 |  | 
CCOCCOc1nn([C@H]2CC[C@H](N3[C@@H]4CC[C@H]3COC4)CC2)cc1Nc1ncc(-c2ccc(C#N)c(O[C@@H](C)Cn3cnnn3)c2)cn1 [Example 12, 2-(((S)-1-(1H-tetrazol-1-yl)propan-2-yl)oxy)-4-(2-((1-((1r,4r)-4-((1R,5S)-3-oxa-8-azabicyclo[3.2.1]octan-8-yl)cyclohexyl)-3-(2-ethoxyethoxy)-1H-pyrazol-4-yl)amino)pyrimidin-5-yl)benzonitrile] | < 10 | > 30 |  |  | 
COCCCOc1nn([C@H]2CC[C@H](N3CCOCC3)CC2)cc1Nc1ncc(-c2ccc(C#N)c(O[C@@H](C)Cn3cnnn3)c2)cn1 [Example 26, 2-(((S)-1-(1H-tetrazol-1-yl)propan-2-yl)oxy)-4-(2-((3-(3-methoxypropoxy)-1-((1r,4r)-4-morpholinocyclohexyl)-1H-pyrazol-4-yl)amino)pyrimidin-5-yl)benzonitrile] | < 10 | > 30 |  | 9 | melting point: 153 °C
COCCCOc1nn([C@H]2CC[C@H](N3[C@@H]4CC[C@H]3COC4)CC2)cc1Nc1ncc(-c2ccc(C#N)c(O[C@@H](C)Cn3cnnn3)c2)cn1 [Example 30, 2-(((S)-1-(1H-tetrazol-1-yl)propan-2-yl)oxy)-4-(2-((1-((1r,4r)-4-((1R,5S)-3-oxa-8-azabicyclo[3.2.1]octan-8-yl)cyclohexyl)-3-(3-methoxypropoxy)-1H-pyrazol-4-yl)amino)pyrimidin-5-yl)benzonitrile] | < 10 | > 30 |  |  | 
COCCOCCCOc1nn([C@H]2CC[C@H](N3C[C@@H](C)O[C@@H](C)C3)CC2)cc1Nc1ncc(-c2ccc(C#N)c(O[C@@H](C)Cn3cnnn3)c2)cn1 [Example 488, 2-(((S)-1-(1H-tetrazol-1-yl)propan-2-yl)oxy)-4-(2-((1-((1r,4r)-4-((2S,6R)-2,6-dimethylmorpholino)cyclohexyl)-3-(3-(2-methoxyethoxy)propoxy)-1H-pyrazol-4-yl)amino)pyrimidin-5-yl)benzonitrile] |  | > 30 | < 10 | 3 | 
C[C@@H]1CN([C@H]2CC[C@H](n3cc(Nc4ncc(-c5ccc(C#N)c(O[C@@H](C)Cn6cnnn6)c5)cn4)c(OCCC4COC4)n3)CC2)C[C@H](C)O1 [Example 477, 2-(((S)-1-(1H-tetrazol-1-yl)propan-2-yl)oxy)-4-(2-((1-((1r,4r)-4-((2S,6R)-2,6-dimethylmorpholino)cyclohexyl)-3-(2-(oxetan-3-yl)ethoxy)-1H-pyrazol-4-yl)amino)pyrimidin-5-yl)benzonitrile] |  |  | < 10 | 9 | 
C[C@@H]1CN([C@H]2CC[C@H](n3cc(Nc4ncc(-c5ccc(C#N)c(O[C@@H](C)Cn6cnnn6)c5)cn4)c(OCCC(C)(C)O)n3)CC2)C[C@H](C)O1 [Example 485, 2-(((S)-1-(1H-tetrazol-1-yl)propan-2-yl)oxy)-4-(2-((1-((1r,4r)-4-((2S,6R)-2,6-dimethylmorpholino)cyclohexyl)-3-(3-hydroxy-3-methylbutoxy)-1H-pyrazol-4-yl)amino)pyrimidin-5-yl)benzonitrile] |  |  | < 10 | 7 | Reduction rate of P-PLN [2]: >30%
CCOCCCOc1nn([C@H]2CC[C@H](N3CCOCC3)CC2)cc1Nc1ncc(-c2ccc(C#N)c(O[C@@H](C)Cn3cnnn3)c2)cn1 [Example 33, 2-(((S)-1-(1H-tetrazol-1-yl)propan-2-yl)oxy)-4-(2-((3-(3-ethoxypropoxy)-1-((1r,4r)-4-morpholinocyclohexyl)-1H-pyrazol-4-yl)amino)pyrimidin-5-yl)benzonitrile] | < 10 | > 30 |  |  | 
COCCCOc1nn([C@H]2CC[C@H](N3C[C@@H](C)O[C@@H](C)C3)CC2)cc1Nc1ncc(-c2ccc(Cl)c(O[C@@H](C)Cn3cnnn3)c2)cn1 [Example 489, 5-(3-(((S)-1-(1H-tetrazol-1-yl)propan-2-yl)oxy)-4-chlorophenyl)-N-(1-((1r,4r)-4-((2S,6R)-2,6-dimethylmorpholino)cyclohexyl)-3-(3-methoxypropoxy)-1H-pyrazol-4-yl)pyrimidin-2-amine] |  | > 30 | < 10 |  | 
[2H]C([2H])([2H])OCCCOc1nn([C@H]2CC[C@H](N3CCOCC3)CC2)cc1Nc1ncc(-c2ccc(Cl)c(O[C@@H](C)Cn3cnnn3)c2)cn1 [Example 512, 5-(3-(((S)-1-(1H-tetrazol-1-yl)propan-2-yl)oxy)-4-chlorophenyl)-N-(3-(3-(methoxy-d3)propoxy)-1-((1r,4r)-4-morpholinocyclohexyl)-1H-pyrazol-4-yl)pyrimidin-2-amine] |  |  | < 10 |  | 
C[C@@H]1CN([C@H]2CC[C@H](n3cc(Nc4ncc(-c5ccc(C#N)c(O[C@@H](C)Cn6cnnn6)c5)cn4)c(OCC4COC4)n3)CC2)C[C@H](C)O1 [Example 479, 2-(((S)-1-(1H-tetrazol-1-yl)propan-2-yl)oxy)-4-(2-((1-((1r,4r)-4-((2S,6R)-2,6-dimethylmorpholino)cyclohexyl)-3-(oxetan-3-ylmethoxy)-1H-pyrazol-4-yl)amino)pyrimidin-5-yl)benzonitrile] |  |  | < 10 |  | 
C[C@@H](Cn1cnnn1)Oc1cc(-c2cnc(Nc3cn([C@H]4CC[C@H](N5CCOCC5)CC4)nc3OCc3nccs3)nc2)ccc1Cl [Example 504, 5-(3-(((S)-1-(1H-tetrazol-1-yl)propan-2-yl)oxy)-4-chlorophenyl)-N-(1-((1r,4r)-4-morpholinocyclohexyl)-3-(thiazol-2-ylmethoxy)-1H-pyrazol-4-yl)pyrimidin-2-amine] |  |  | < 10 |  | 
